Consider `N#Cc1ccc(C=Cc2ncn(CC(O)(Cn3cncn3)c3ccc(F)cc3F)n2)cc1` (centres undefined), for which the melting point (commonly the temperature, or range, at which the solid turns liquid) was 189 to 191 °C. Molecule `Cc1ccc(C=C2SC(=S)N(CC(=O)O)C2=O)cc1` had a melting point of 245 to 250 °C. For `COc1ccc2c(c1)c(CC(=O)OCC(=O)O)c(C)n2C(=O)c1cccc(C(F)(F)F)c1`, the melting point was 136 to 138 °C. `Cc1ccc(Cc2cnc[nH]2)cc1NS(C)(=O)=O` displayed a melting point of 170 °C.

In the case of `CC(C)(C)c1cc(I)c(O)c(CNS(=O)(=O)O)c1`, the melting point fell in the range of 172 to 180 °C. Next, `CCOCCC(Cc1ccc(NC(=O)NC(=O)c2ccc(C(N)=S)cc2)cc1)C(=O)OC(C)(C)C` (centres undefined): 199 to 201 °C; `O=S(=O)(O)c1cccc2c1ccc1nc(O)c(O)nc12`: more than 300 °C; `CCOC(=O)/C=C/c1ccc(-c2nc3c(=O)n(CC4CCCCC4)c(=O)n(CC4CCCCC4)c3[nH]2)cc1`: more than 300 °C. In turn, `CCCNc1c2c(nc3ccccc13)CCCC2=O` came in with a melting point of 145 °C. Consider `CCCn1cc(C(=O)Nc2nccs2)c2ccc(Cl)cc21`, for which the melting point was 175 to 176 °C. In turn, `COc1ccccc1Oc1c(O)nc(O)nc1O` had a melting point of 202 to 204 °C. The molecule `CC[C@@H](C1CC1)n1cc(Cl)nc(N2CCc3cc(Br)cc(Br)c32)c1=O` yielded a melting point of 165 °C. `O=C1Nc2ccc(-c3cccc(Cl)c3)cc2C(C2CC2)(C2CC2)O1` came in with a melting point of 198 to 200 °C. The molecule `COc1cccc(COc2ccc(S(=O)(=O)c3ccc(C)nc3Nc3c(C)cc(C)cc3C)cc2)c1` showed a melting point of 124 to 126 °C. In turn, `Nc1nc(O)c2c(n1)NCC(CCc1c[nH]c(C(=O)O)c1)C2` (centres undefined) registered a melting point of more than 260 °C.

As for `O=c1cc(-c2ccccc2)oc2cc(OCCCCCN3CCC(O)CC3)ccc12`, the melting point lay in the range of 94 to 95 °C. `CCC(=NO)C(C)(C)NCC(Cn1ccnc1[N+](=O)[O-])ONC(C)(C)C(CC)=NO` (centres undefined) had a melting point of 143 to 144 °C. Molecule `CCC(O)CNC(=O)c1n[nH]cc1NC(=O)c1ccccn1` (centres undefined) yielded a melting point of 202 to 203 °C.

On to `C=CCNc1c(CO)cnc2cn(C(C)(C)OC)nc12`, for which the melting point lay within 152 to 154 °C. Regarding `COc1ccc2c(c1)CCN1C(=O)C3=C(CC21)NCCC3` (centres undefined), the melting point is 202 to 205 °C.

`O=S1CSC(=C(c2ccc(F)cc2)c2ccc(F)cc2)SC1` (centres undefined) yielded a melting point of 155 to 156 °C. In the case of `Cc1ccc(C(=O)C2C(=O)CCC(C)(C)C2=O)cc1` (centres undefined), the melting point is 78 to 79 °C. With `CC(O)c1cc2c(s1)S(=O)(=O)CCc1cc(=O)n(-c3ccc(Cl)cc3)nc1-2` (centres undefined), the melting point fell in the range of 233 to 235 °C.

`O=C(Nc1ccc(CBr)c(C(F)(F)F)c1)C(F)(F)F` gave a melting point of 119 to 120 °C. For `c1cnc2ccc(Cn3cnc4ccc(-c5cn[nH]c5)nc43)cc2c1`, the melting point was 214 to 216 °C. Regarding `COc1cc(F)c(N2CCCC2=O)c(S(N)(=O)=O)c1`, the melting point is 205 °C. On to `CC(=O)OCc1nc2cc(Cl)c(C)cc2c(=O)n1C`, for which the melting point lay within 110 to 112 °C. The same measure for `Cc1cccc(C2=C(c3cn(C)c4ccccc34)C(=O)NC2=O)c1`: 243 °C. Turning to `O=C1NCCCc2ccc([N+](=O)[O-])cc21`, the melting point lay in the range of 177 to 180 °C. Molecule `COc1cc(Nc2nc3cccc(-c4ccc(C#N)cc4)c3o2)cc(OC)c1OC` gave a melting point of 222 to 223 °C. As for `CCCC=Cc1c(C(C)C)nc(C(C)C)c(C(=O)OCC)c1-c1ccc(C)cc1`, the melting point fell in the range of 74 to 77 °C. Next, `COc1ccc(NC(=O)CCCn2nnnc2C)cc1`: 132 to 134 °C; `Cc1nc(N)c2nc(CO)n(NCc3cccnc3)c2c1C`: 258 to 260 °C; `C#CCN1C(=O)COc2cc(F)c([N+](=O)[O-])cc21`: 105 to 107 °C. `CCOC(=O)C(=O)Cc1cc(Cl)c(Cl)cc1[N+](=O)[O-]`: the melting point fell in the range of 92 to 94 °C.

As for `CCOc1ccc([N+](=O)[O-])c(NC2CCCCCC2)c1`, the melting point was 83 °C. `Nc1sc2c(c1C(=O)c1ccc3ccccc3c1)CCN(Cc1ccccc1Cl)C2` showed a melting point of 169 to 171 °C. `COCCOc1ccc(CCNC(=O)c2cnc3ccccc3c2)cc1S(N)(=O)=O` yielded a melting point of 170 °C. The molecule `O=C(O)CCn1c(=S)sc2ccccc21` displayed a melting point of 164 to 165 °C. For `CCOC(=O)C1(NC(=O)CC)Cc2cccc3c2N(CCC3)C1=O` (centres undefined), the melting point lay within 136 to 140 °C.

Consider `COc1ccc(CN(C(=O)C(F)(F)F)c2cc(F)cc(C#N)c2)cc1`, for which the melting point lay in the range of 102 to 103 °C. In turn, `Nc1ccc(C2=NNC(c3ccccn3)=NN2)nc1` yielded a melting point of 158 to 160 °C. Regarding `COc1cccc(Cc2cnc(N[N+](=O)[O-])[nH]c2=O)c1`, the melting point is 178 to 179 °C. `Cc1sc(NS(=O)(=O)c2ccc(-c3ccccc3)cc2)nc1CC(=O)N1CCOCC1` displayed a melting point of 204 to 206 °C. For the molecule `COCCc1nc2c(N)nc3ccccc3c2n1CCCCNC(=O)c1cnc2ccccc2c1`, the melting point fell in the range of 114 to 116 °C.

In turn, `O=C1Cc2cc(-c3cccc(Cl)c3)ccc2N1` returned a melting point of 169 to 171 °C. As to `NCCC(=O)N(c1ccccc1)c1ccccc1`, the melting point stood at 50 °C.

Consider `CC(Sc1nc(N)c(Br)c(Cl)n1)c1cc2ccccc2cn1` (centres undefined), for which the melting point lay in the range of 173 to 174 °C. For `CS(=O)(=O)c1ccc(-n2nc(C(=O)O)cc2-c2ccc(-c3ccco3)cc2)cc1F`, the melting point was 172 to 173 °C. Next, `O=C(O)C12C3C4C5C3C1C5C42` (centres undefined): 154 to 155 °C; `COc1ccc2ncc(NC(=O)C=Cc3cc(OC)c(OC(C)=O)c(OC)c3)c(-c3ccccc3)c2c1`: 273 to 275 °C. Molecule `CCOC(=O)CCc1nnc(CNC(=O)c2ccc(Cl)c(Cl)c2)n1-c1sc(CC)cc1C(=O)c1ccccc1Cl` showed a melting point of 153 to 155 °C.

`Cc1cc(C2=NNC(=O)SC2C)cc2c1NC(=O)C2(C)C` (centres undefined) returned a melting point of 260 °C. Next, `CCCCNC(=O)Oc1cccc(NC(=O)CC(C)(OC)OC)c1`: 114 °C; `C[C@]1(COc2ccc(N3CCC(OCc4ccc(C(F)(F)F)cc4)CC3)cc2)Cn2cc([N+](=O)[O-])nc2O1`: 217 to 220 °C; `CC(=O)OC1CSC(Oc2cncc(-c3ccc(C#N)c(C)c3)c2)C(OC(C)=O)C1OC(C)=O` (centres undefined): 74 to 80 °C. As to `CC(C)(C=NO)C1CCN(CC#Cc2cc(C(F)(F)F)cc(C(F)(F)F)c2)CC1`, the melting point was in the range of 63 to 65 °C. The molecule `CN1CCN(Cc2c(CO)c(Cl)nc3cc4c(cc23)OCCO4)CC1` had a melting point of 178 to 180 °C. Next, `COc1ccc(/C=C(/C(=O)O)c2cc(OC)c(OC)c(OC)c2)cc1`: 187 to 189 °C; `O=C(Nc1ccc(Cl)cc1)C(CS)Cc1ccccc1` (centres undefined): 142 °C. As to `CCOC(=O)Cn1c(=O)c2cc(Cl)ccc2n(Cc2ccc(Br)cc2F)c1=O`, the melting point fell in the range of 145 to 146 °C.

Regarding `CC12CCC(=O)C=C1CCC1C2CCC2(C)C1CCC2(O)C(=O)CCl` (centres undefined), the melting point is 239 °C. The same measure for `CCOC(=O)c1cn(C2CC2)c2cc(F)c(F)c(N(Cc3ccccc3)C(C)=O)c2c1=O`: 147 to 150 °C; for `NC(=O)c1ccc(-c2ccc3nnn(Cc4ccc5ncccc5c4)c3n2)cc1Cl`: 212 to 215 °C.

The record behind these values is a melting point compilation (Tetko et al.; mined from patent text by program, amines drawn as free bases though some values may be those of a salt).
